Reference: patent US10457707B2, “Substituted urea depsipeptide analogs as activators of the CLPP endopeptidase” (priority 2015, dated 2019)
In brackets after ≈: the same amount, converted by molar mass. Read-outs that look alike come from different tables or passages of the source. *1 amine or outer side, *2 acyl side, *3 side chain or, on linkers, in order; H or OH if unused. Where a SMILES comes first, the peptide text is derived from it. Bridges are numbered along the chain shown (N, C = ends). [ ]: non-standard residue; d: D form. The star is where a group is joined. Phe(3,5-F2) = N[C@@H](Cc1cc(F)cc(F)c1)C(=O)O; Pro(4S-Me) = C[C@@H]1CN[C@H](C(=O)O)C1; NHPh(4-CF3) = FC(F)(F)c1ccc(N*)cc1; NH(4-Me-phenyl) = Cc1ccc(N*)cc1; aThr = C[C@H](O)[C@H](N)C(=O)O; Pip = O=C(O)[C@@H]1CCCCN1; CO = O=C([*:1])[*:2]

Columns and labels:
Assay type in all cases: cell-based
E. coli K12ΔtolC = assay: Minimal inhibitory concentration assay (microbroth dilution)
[1] = tested on: Streptococcus pneumoniae, DAW27; assay: as above; conditions: DAW27, read-out: Minimal Inhibitory Concentrations S. pneumoniae DAW27
Procedure, shortened: (§1)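 Antibacterial activity was measured by CLSI-standard microdilution in broth, using overnight aerobic incubation at 37 °C. Growth inhibition was scored visually, and MIC taken as the lowest concentration preventing growth.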

[2] = tested on: Bacillus subtilis, ATCC 23857; assay: as above
Procedure, shortened: as §1

[3] = tested on: Enterococcus faecalis, ATCC 33186; assay: as above
Procedure, shortened: as §1

[4] = tested on: Staphylococcus aureus, NRS70; assay: as above
Procedure, shortened: as §1

[5] = tested on: Streptococcus pyogenes, ATCC 700294; assay: as above
Procedure, shortened: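 CLSI broth microdilution: two-fold serial compound dilutions in appropriate broth, inoculated and incubated aerobically overnight at 37° C. MIC read visually as lowest concentration preventing bacterial growth.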

[6] = tested on: Staphylococcus aureus, ATCC 29213; assay: as above; conditions: ATCC29213, read-out: Minimal Inhibitory Concentrations S. aureus ATCC 29213
Procedure, shortened: as §1

[7] = tested on: Vero (kidney epithelial cells; ATCC CCL-81); assay: Cytotoxicity assay (CellTiter-Glo cell viability, 72 hours); conditions: Vero cells, 72 hours, growth inhibition; read-out: Cytotoxicity IC50
Procedure, shortened: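 Vero cells, 5000/well, grown overnight at 37° C, 5% CO2 in DMEM with 10% FBS, then exposed to serial compound dilutions or DMSO for 72 hours. Viability read by CellTiter-Glo luminescence. IC50 from duplicate wells, reported as range over two independent experiments.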

[8] = tested on: Staphylococcus aureus, USA 300 wherein ClpP is inactivated; assay: Minimal inhibitory concentration assay
Procedure, shortened: as §1

[9] = tested on: Staphylococcus aureus, USA 300; assay: Minimal inhibitory concentration assay; conditions: USA300, read-out: Minimal Inhibitory Concentrations S. aureus USA 300
Procedure, shortened: as §1

[10] = tested on: Streptococcus pneumoniae, R6; assay: Minimal inhibitory concentration assay; conditions: read-out: Minimal Inhibitory Concentrations S. pneumoniae R6
Procedure, shortened: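 Microbroth dilution with two-fold serial compound dilutions in broth, incubated aerobically overnight at 37° C. MIC taken as the lowest concentration preventing bacterial growth.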

[11] = Bacillus subtilis, ATCC23857; read-out: Minimal Inhibitory Concentrations B. subtilis ATCC 23857
[12] = Enterococcus faecalis, ATCC33186; read-out: Minimal Inhibitory Concentrations E. faecalis ATCC 33186
[13] = Staphylococcus aureus, NRS70; read-out: Minimal Inhibitory Concentrations S. aureus NRS70
[14] = Streptococcus pyogenes, ATCC700294; read-out: Minimal Inhibitory Concentrations S. pyogenes ATCC 700294
[15] = Bacillus subtilis, ATCC23857, read-out: Minimal Inhibitory Concentrations B. subtilis ATCC 23857
[16] = Enterococcus faecalis, ATCC33186, read-out: Minimal Inhibitory Concentrations E. faecalis ATCC 33186
[17] = Staphylococcus aureus, NRS70, read-out: Minimal Inhibitory Concentrations S. aureus NRS70
[18] = Streptococcus pyogenes, ATCC700294, read-out: Minimal Inhibitory Concentrations S. pyogenes ATCC 700294

Structure (SMILES) | Minimal Inhibitory Concentrations E. coli K12ΔtolC (E. coli K12ΔtolC) [µM] | MIC [1] [µM] | MIC [2, 11] [µM] | MIC [3, 12] [µM] | MIC ([4]; S. aureus NRS70; read-out: Minimal Inhibitory Concentrations S. aureus NRS70) [µM] | MIC ([5]; S. pyogenes ATCC 700294; read-out: Minimal Inhibitory Concentrations S. pyogenes ATCC 700294) [µM] | MIC [6] [µM] | MIC [4, 13] [µM] | MIC [5, 14] [µM] | MIC [2, 15] [µM] | MIC [3, 16] [µM] | MIC [4, 17] [µM] | MIC [5, 18] [µM] | IC50 [7] [µM] | Minimal Inhibitory Concentrations S. aureus USA 300 ΔClpP [8] [µM] | MIC [9] [µM] | MIC [10] [µM]
C[C@@H]1C[C@H]2C(=O)OC[C@H](NC(=O)[C@H](Cc3ccccc3)NC(=O)Nc3ccc(OC(F)(F)F)cc3)C(=O)N3CCC[C@H]3C(=O)N3CCCC[C@H]3C(=O)N[C@@H](C)C(=O)N2C1 [Compound 2, (S)—N-((2R,6S,8aS,14aS,20S,23aS)-2,6-dimethyl-5,8,14,19,23-pentaoxooctadecahydro-1H,5H,14H,19H-pyrido[2,1-i]dipyrrolo[2,1-c:2′,1′-l][1]oxa[4,7,10,13]tetraazacyclohexadecin-20-yl)-3-phenyl-2-(3-(4-(trifluoromethoxy)phenyl)ureido)propanamide] | 12.5 | 0.02 (≈ 0.0166 µg/mL) | 0.2 (≈ 0.166 µg/mL) | 0.02 (≈ 0.0166 µg/mL) | 0.20 (≈ 0.166 µg/mL) | 0.10 (≈ 0.0828 µg/mL) | – | – | – | – | – | – | – | – | – | – | –
CCc1cccc(NC(=O)N[C@@H](Cc2ccccc2)C(=O)N[C@H]2COC(=O)[C@@H]3C[C@@H](C)CN3C(=O)[C@H](C)NC(=O)[C@@H]3CCCCN3C(=O)[C@@H]3CCCN3C2=O)c1 [Compound 10, (S)—N-((2R,6S,8aS,14aS,20S,23aS)-2,6-dimethyl-5,8,14,19,23-pentaoxooctadecahydro-1H,5H,14H,19H-pyrido[2,1-i]dipyrrolo[2,1-c:2′,1′-l][1]oxa[4,7,10,13]tetraazacyclohexadecin-20-yl)-2-(3-(3-ethylphenyl)ureido)-3-phenylpropanamide] | – | 0.3 (≈ 0.232 µg/mL) | 0.6 (≈ 0.463 µg/mL) | 0.3 (≈ 0.232 µg/mL) | – | – | 0.6 (≈ 0.463 µg/mL) | 0.6 (≈ 0.463 µg/mL) | 0.6 (≈ 0.463 µg/mL) | – | – | – | – | – | – | – | –
C[C@@H]1C[C@H]2C(=O)OC[C@H](NC(=O)[C@H](Cc3ccccc3)NC(=O)Nc3ccc4c(c3)CCN4C)C(=O)N3CCC[C@H]3C(=O)N3CCCC[C@H]3C(=O)N[C@@H](C)C(=O)N2C1 [Compound 11, (S)—N-((2R,6S,8aS,14aS,20S,23aS)-2,6-dimethyl-5,8,14,19,23-pentaoxooctadecahydro-1H,5H,14H,19H-pyrido[2,1-i]dipyrrolo[2,1-c:2′,1′-l][1]oxa[4,7,10,13]tetraazacyclohexadecin-20-yl)-2-(3-(1-methylindolin-5-yl)ureido)-3-phenylpropanamide] | – | 0.3 (≈ 0.24 µg/mL) | – | – | – | – | 2.5 (≈ 2 µg/mL) | – | – | 1.25 (≈ 0.999 µg/mL) | 0.6 (≈ 0.479 µg/mL) | 1.25 (≈ 0.999 µg/mL) | 0.6 (≈ 0.479 µg/mL) | 76 ± 10.6 | – | – | –
C[C@@H]1C[C@H]2C(=O)OC[C@H](NC(=O)[C@H](Cc3ccccc3)NC(=O)Nc3ccc4ccn(C)c4c3)C(=O)N3CCC[C@H]3C(=O)N3CCCC[C@H]3C(=O)N[C@@H](C)C(=O)N2C1 [Compound 12, (S)—N-((2R,6S,8aS,14aS,20S,23aS)-2,6-dimethyl-5,8,14,19,23-pentaoxooctadecahydro-1H,5H,14H,19H-pyrido[2,1-i]dipyrrolo[2,1-c:2′,1′-l][1]oxa[4,7,10,13]tetraazacyclohexadecin-20-yl)-2-(3-(1-methyl-1H-indol-6-yl)ureido)-3-phenylpropanamide] | – | 0.3 (≈ 0.239 µg/mL) | – | – | – | – | 2.5 (≈ 1.99 µg/mL) | – | – | 2.5 (≈ 1.99 µg/mL) | 1.25 (≈ 0.996 µg/mL) | 2.5 (≈ 1.99 µg/mL) | 0.6 (≈ 0.478 µg/mL) | 90 ± 7.6 | – | – | –
C[C@@H]1C[C@H]2C(=O)OC[C@H](NC(=O)[C@H](Cc3cc(F)cc(F)c3)NC(=O)Nc3ccc(OC(F)(F)F)cc3)C(=O)N3CCC[C@H]3C(=O)N3CCCC[C@H]3C(=O)N[C@@H](C)C(=O)N2C1 [Compound 13, (S)-3-(3,5-difluorophenyl)-N-((2R,6S,8aS,14aS,20S,23aS)-2,6-dimethyl-5,8,14,19,23-pentaoxooctadecahydro-1H,5H,14H,19H-pyrido[2,1-i]dipyrrolo[2,1-c:2′,1′-l][1]oxa[4,7,10,13]tetraazacyclohexadecin-20-yl)-2-(3-(4-(trifluoromethoxy)phenyl)ureido)propanamide] | – | 0.04 (≈ 0.0346 µg/mL) | 0.08 (≈ 0.0691 µg/mL) | 0.04 (≈ 0.0346 µg/mL) | – | – | 0.05 (≈ 0.0432 µg/mL) | 0.8 (≈ 0.691 µg/mL) | 0.15 (≈ 0.13 µg/mL) | – | – | – | – | – | – | – | –
CCc1ccc(NC(=O)N[C@@H](Cc2cc(F)cc(F)c2)C(=O)N[C@H]2COC(=O)[C@@H]3C[C@@H](C)CN3C(=O)[C@H](C)NC(=O)[C@@H]3CCCCN3C(=O)[C@@H]3CCCN3C2=O)cc1 [Compound 14, (S)-3-(3,5-difluorophenyl)-N-((2R,6S,8aS,14aS,20S,23aS)-2,6-dimethyl-5,8,14,19,23-pentaoxooctadecahydro-1H,5H,14H,19H-pyrido[2,1-i]dipyrrolo[2,1-c:2′,1′-l][1]oxa[4,7,10,13]tetraazacyclohexadecin-20-yl)-2-(3-(4-ethylphenyl)ureido)propanamide] | – | 0.04 (≈ 0.0323 µg/mL) | 0.08 (≈ 0.0646 µg/mL) | 0.04 (≈ 0.0323 µg/mL) | – | – | 0.1 (≈ 0.0808 µg/mL) | 0.08 (≈ 0.0646 µg/mL) | 0.8 (≈ 0.646 µg/mL) | – | – | – | – | – | – | – | –
Cc1ccc(NC(=O)N[C@@H](Cc2cc(F)cc(F)c2)C(=O)N[C@@H]2C(=O)N3CCC[C@H]3C(=O)N3CCCC[C@H]3C(=O)N[C@@H](C)C(=O)N3C[C@@H](C)C[C@H]3C(=O)O[C@H]2C)cc1 [Compound 18, (S)-3-(3,5-difluorophenyl)-2-(3-(p-tolyl)ureido)-N-((2R,6S,8aS,14aS,20S,21S,23aS)-2,6,21-trimethyl-5,8,14,19,23-pentaoxooctadecahydro-1H,5H,14H,19H-pyrido[2,1-i]dipyrrolo[2,1-c:2′,1′-l][1]oxa[4,7,10,13]tetraazacyclohexadecin-20-yl)propanamide] ({NH(4-Me-phenyl)-CO}-[Phe(3,5-F2)][aThr]P[Pip]A[Pro(4S-Me)]; ester 2-C) | – | – | – | – | – | – | 0.1 (≈ 0.0808 µg/mL) | – | – | < 0.1 | 0.8 (≈ 0.646 µg/mL) | 0.1 (≈ 0.0808 µg/mL) | < 0.1 | 26.7 ± 3.6 | 100 | 0.1 (≈ 0.0808 µg/mL) | < 0.1
C[C@H]1C[C@H]2C(=O)O[C@@H](C)[C@H](NC(=O)[C@H](Cc3cc(F)cc(F)c3)NC(=O)Nc3ccc(C(F)(F)F)cc3)C(=O)N3CCC[C@H]3C(=O)N3CCCC[C@H]3C(=O)N[C@@H](C)C(=O)N2C1 [Compound 19, (S)-3-(3,5-difluorophenyl)-2-(3-(4-(trifluoromethyl)phenyl)ureido)-N-((2R,6S,8aS,14aS,20S,21S,23aS)-2,6,21-trimethyl-5,8,14,19,23-pentaoxooctadecahydro-1H,5H,14H,19H-pyrido[2,1-i]dipyrrolo[2,1-c:2′,1′-l][1]oxa[4,7,10,13]tetraazacyclohexadecin-20-yl)propanamide] ({NHPh(4-CF3)-CO}-[Phe(3,5-F2)][aThr]P[Pip]A[Pro(4S-Me)]; ester 2-C) | – | – | – | – | – | – | 0.1 (≈ 0.0862 µg/mL) | – | – | < 0.1 | 0.39 (≈ 0.336 µg/mL) | 0.1 (≈ 0.0862 µg/mL) | 0.4 (≈ 0.345 µg/mL) | 36.8 ± 4.1 | 6.2 | 0.1 (≈ 0.0862 µg/mL) | 0.8 (≈ 0.689 µg/mL)
CN(C)[C@@H]1C(O)=C(C(N)=O)C(=O)[C@@]2(O)C(O)=C3C(=O)c4c(O)cccc4[C@@](C)(O)[C@H]3C[C@@H]12 [Tetracycline, tetracycline, reference compound] | – | 0.1 (≈ 0.0444 µg/mL) | 1.6 (≈ 0.711 µg/mL) | 0.05 (≈ 0.0222 µg/mL) | – | – | 0.1 (≈ 0.0444 µg/mL) | 0.05 (≈ 0.0222 µg/mL) | 0.1 (≈ 0.0444 µg/mL) | – | – | – | – | – | – | 0.1 (≈ 0.0444 µg/mL) | –
